Experimental data: patent US11602534B2, “Pyrimidine derivative kinase inhibitors” (HEFEI INSTITUTES OF PHYSICAL SCIENCE, CHINESE ACADEMY OF …, priority 2017, dated 2023)

Key:
[1] = tested on: poly(ADP-ribose) polymerase (PARP); assay: Cell apoptosis: PARP cleavage by Western Blot in AML cells; format: cell-based, human; details: 1 μM, 24 hours; MOLM-13, MOLM-14, MV-4-11
Description: In human acute myeloid leukemia cells MV4-11 (expressing FLT3/ITD mutant gene) cell strain and human acute myeloid leukemia cells MOLM-13 and MOLM-14 (expressing FLT3/ITD mutant gene and wild-type FLT3 gene) cell strains, the effects of Compound 5 and Compound 135 on protein cleavage of the DNA repairase poly(ADP-ribose) polymerase (PARP) and Caspase (cysteinyl aspartate-specific proteinase) 3 that were closely related to cell apoptosis were examined in cells in order to confirm whether the death of the cells after the administration was caused by apoptosis or necrosis. MOLM-13, MOLM-14, MV-4-11 cell strains were treated with Compound 5, Compound 135 (at different concentrations: 0 μM, 0.1 μM, 0.3 μM, 1 μM, 3 μM in DMSO) and the control compound PKC412 (purchased from MedChem Express) (1 μM in DMSO), respectively, and the cells were collected after 24 hours. Western Blot was used to detect the effects of different concentrations of compounds on protein cleavage of the DNA repairase poly(ADP-ribose) polymerase (PARP) and Caspase (cysteinyl aspartate-specific proteinase) 3.

C-Myc = assay: Degradation of C-Myc in AML cells; format: cell-based, human; details: MV-4-11, MOLM13 and MOLM-14; 4 hours; compounds 0.01-3 μM, PKC412 1 μM
Procedure: In cells having FLT3 gene and/or FLT3/ITD mutant gene, specifically, human acute myeloid leukemia cells MV4-11 (expressing FLT3/ITD mutant gene) cell strain and human acute myeloid leukemia cells MOLM-13 and MOLM-14 (expressing FLT3/ITD mutant gene and wild-type FLT3 gene) cell strains, Compound 5, Compound 135 and a FLT3 kinase inhibitor, PKC412 (purchased from Hao Yuan Chemexpress Company, Shanghai), which was used as the control, were evaluated for their effects in cells on phosphorylation of FLT3 and FLT3/ITD protein kinase and phosphorylation of the closely-related STATS protein which is downstream of FLT3 signaling pathways, as well as their effects on phosphorylation of other relevant protein kinases such as ERK and AKT, by assaying a number of cellular biochemical and functional endpoints. In addition, the effects on C-Myc and phosphorylation of the transcription factor NF-κB subunit p65 was also examined (FIGS. 1a-1f). Compound 5 and Compound 135 at different concentrations (0 μM, 0.01 μM, 0.03 μM, 0.1 μM, 0.3 μM, 1 μM, 3 μM in DMSO) and the FLT3 kinase inhibitor PKC412 (1 μM in DMSO) were used to treat acute myeloid leukemia cells MV-4-11, MOLM13 and MOLM-14 that had FLT3 and/or FLT3/ITD gene for 4 hours, respectively, and then the samples were collected. The effects of the compounds on the phosphorylation of proteins such as STATS, C-Myc, ERK, NF-κB p65, AKT in cells were tested (FIGS. 1a-1f).

MV4-11 cells = assay: Nude mouse model harboring subcutaneous MV4-11 tumor; format: in vivo; details: for tumor volume increase: oral gavage; for tumor growth in mice: MV4-11 subcutaneous tumor, daily oral gavage, four weeks
Procedure: In order to determine the inhibitory effect of Compound 5 and Compound 135 on tumors in vivo, a nude mouse model harboring subcutaneous tumor was introduced. 44 mice (5-week-old) (Balb/c-nu female mice, purchased from Shanghai Snake Experimental Animal Co., Ltd.) were inoculated subcutaneously with MV4-11 cells at 1×10^7 cells/mouse, and the changes in body weight and tumor volume were recorded daily (tumor volume=tumor length×tumor width×tumor width/2). 10 days later, the mice, of which tumor volumes reached 200 mm^3, were randomized into seven groups with 5-9 mice in each group, and were treated as follows: the first group was administered daily by oral gavage with vehicle, i.e., methylcellulose-based aqueous suspension (purchased from Sinopharm Group Chemical Reagent Co., Ltd.); the second, third and the fourth groups were administered daily by oral gavage with 25 mg/kg, 50 mg/kg, 100 mg/kg of Compound 135 in a methylcellulose-based aqueous suspension formulation; the fifth, sixth and seventh groups were administered daily by oral gavage with 25 mg/kg, 50 mg/kg, 100 mg/kg of Compound 5 in a methylcellulose-based aqueous suspension formulation. The first day of administration was recorded as day 0, followed by continuous administration for four weeks (FIGS. 3a-3b).

[2] = tested on: Chinese hamster ovary (CHO) cells; assay: cells; format: cell-based; details: Cricetulus griseus, 72 hours, Cell Titer-Glo
Procedure: (§1) In addition, in this example the inhibitory activity of preferred compounds (Compound 5 and Compound 135) was tested against the following cell strains: human acute myeloid leukemia cell strain MV4-11 (expressing FLT3/ITD mutant gene), human acute myeloid leukemia cell strain MOLM-13 (expressing FLT3/ITD mutant gene and wild-type FLT3 gene), human acute myeloid leukemia cell strain MOLM-14 (expressing FLT3/ITD mutant gene and wild-type FLT3 gene), human acute myeloid leukemia cell strain OCI-AML-3 (expressing FLT3 A680V mutant gene), human chronic lymphatic leukemia cell strain MEC-1, Chinese hamster lung (CHL) cells, Chinese hamster ovary (CHO) cells, wherein all the cells were purchased from ATCC. In the example the compounds of the present invention were added respectively into the above cells at different concentrations (0.000508 μM, 0.00152 μM, 0.00457 μM, 0.0137 μM, 0.0411 μM, 0.123 μM, 0.370 μM, 1.11 μM, 3.33 μM, 10 μM in DMSO) and the cells were incubated for 72 hours. The number of viable cells was determined by quantification of ATP in living cells using Cell Titer-Glo® (Promega, the USA) Luminescent Cell Viability Assay kit and thereby GI50 was calculated.

[3] = tested on: Chinese hamster lung (CHL) cells; assay: cells; format: cell-based; details: Cricetulus griseus, 72 hours, Cell Titer-Glo
Procedure: as §1

In the case of CC(=O)Nc1cc(Oc2ccc(NC(=O)Cc3ccccc3C(F)(F)F)cc2)ncn1 [Example 135, N-[4-(6-acetylamino-pyrimidin-4-yloxy)-phenyl]-2-(2-trifluoromethyl-phenyl)-acetamide], the “cleavage of the DNA repairase poly(ADP-ribose) polymerase (PARP)” value [1] is reported as “significant cleavage”, the “degradation of C-Myc” value (C-Myc) is reported as “significant effects on the degradation” and the tumor volume increase (MV4-11 cells; 50 mg/kg/day) is reported as “slowed significantly”. For the same molecule, the tumor volume increase (MV4-11 cells; 100 mg/kg/day) was “slowed vastly”, the “tumor growth in mice” value (MV4-11 cells) was “significantly inhibited” and the GI50 [2] was greater than 10 µM. For the same molecule, the GI50 [3] was greater than 10 µM.

With CC(=O)Nc1cc(Oc2ccc(NC(=O)Cc3ccc(F)cc3F)cc2)ncn1 [Example 5, N-[4-(6-acetylamino-pyrimidin-4-yloxy)-phenyl]-2-(2,4-difluoro-phenyl)-acetamide] the “cleavage of the DNA repairase poly(ADP-ribose) polymerase (PARP)” value [1] was “significant cleavage”, the “degradation of C-Myc” value (C-Myc) was “significant effects on the degradation” and the tumor volume increase (MV4-11 cells; 50 mg/kg/day) was “slowed significantly”. The tumor volume increase (MV4-11 cells; 100 mg/kg/day) was “slowed vastly”, the “tumor growth in mice” value (MV4-11 cells) was “significantly inhibited” and the GI50 [2] was greater than 10 µM. The GI50 [3] was greater than 10 µM.
